Measured values published in ChEMBL document CHEMBL5252559, “Altersteroids A-D, 9,11-Secosteroid-Derived γ-Lactones from an Alternaria sp” (J Nat Prod, 2023).

Columns and labels:
[1] = Cytotoxicity against cisplatin-sensitive mouse MB49 cells assessed as inhibition of cell growth incubated for 72 hrs by MTT assay; assay type: functional, cell-based; conditions: MB49, 72 h
[2] = test system: HCT-116; experiment: Cytotoxicity against human HCT-116 cells assessed as inhibition of cell growth incubated for 72 hrs by MTT assay; assay type: functional, cell-based; conditions: HCT-116, 72 h
[3] = Cytotoxicity against cisplatin-resistant mouse MB49 cells assessed as inhibition of cell growth incubated for 72 hrs by MTT assay; assay type: functional, cell-based; conditions: MB49, 72 h
[4] = test system: A549; experiment: Cytotoxicity against human A549 cells assessed as inhibition of cell growth incubated for 72 hrs by MTT assay; assay type: functional, cell-based; conditions: A549, 72 h
[5] = Induction of caspase3/7-mediated apoptosis in human A549 cells assessed as increase in mean fluorescence intensity at 10 to 100 uM incubated for 48 hrs; assay type: functional; conditions: dose 10-100 µM
[6] = test system: A549; experiment: Induction of apoptosis in human A549 cells assessed as caspase 3/7 positive cells at 100 uM incubated for 48 hrs by […] staining and caspase 3/7 reagent based analysis relative to control; assay type: functional
[7] = test system: A549; experiment: Induction of apoptosis in human A549 cells assessed as caspase 3/7 positive cells at 31.6 uM incubated for 48 hrs by […] staining and caspase 3/7 reagent based analysis relative to control; assay type: functional

SMILES | IC50 [1] [µM] | IC50 [2] [µM] | IC50 [3] [µM] | IC50 [4] [µM] | Activity [5] | Activity [6] [%] | Activity [7] [%]
CC(C)[C@@H](C)/C=C/[C@@H](C)[C@H]1CC[C@]2(C3=CC(=O)C4=CC(=O)CC[C@]4(C)C3=O)OC(=O)C[C@]12C | 53.6 | 45 | 54.3 | 54.3 |  |  | 
CC(C)[C@@H](C)/C=C/[C@@H](C)[C@H]1CC[C@]2(C3=C[C@H](O)C4=C[C@@H](O)CC[C@]4(C)C3=O)OC(=O)C[C@]12C | 12.7 | 4.8 | 12.7 | 5.3 | 2000 | 81.9 | 21.1
CC(C)[C@@H](C)/C=C/[C@@H](C)[C@H]1CC[C@]2(C3=CC(=O)[C@@H]4C[C@H](O)CC[C@]4(C)C3=O)OC(=O)C[C@]12C | > 100 | 57.8 | > 100 | > 100 |  |  | 
CC(C)[C@@H](C)/C=C/[C@@H](C)[C@H]1CC[C@]2(C3=C[C@H](O)[C@@H]4C[C@H](O)CC[C@]4(C)C3=O)OC(=O)C[C@]12C | 34.1 | 14.6 | 14.2 | 19.7 |  |  | 
